From PubChem BioAssay AID602275 (The Scripps Research Institute Molecular Screening Center, 2012)
Where “and” joins values, the source holds several entries; their conditions need not be identical. Identical values can stand only once. Calls of active or inactive are those of the source. The rule behind the calls is not given here.

Columns and labels:
NS3h 2a[JFH1] = assay: NS3h unwinding inhibitors, genotype 1b and 2a – biochemical, real-time fluorescence, strains con1 and JFH1, set 3, selectivity assay for HCV NS3 helicase inhibitor project, late-stage follow-up (AID 602275); settings: Recombinant NS3h
NS3h 1b[con1] = assay: as above; settings: Recombinant NS3h

| SMILES | IC50 (NS3h 2a[JFH1]) | IC50 (NS3h 1b[con1]) | outcome (NS3h 2a[JFH1]) | outcome (NS3h 1b[con1]) |
| --- | --- | --- | --- | --- |
| Cc1ccc2nc(-c3ccc4nc(-c5ccc(NC(=O)c6ccccc6C(F)(F)F)cc5)sc4c3)sc2c1S(=O)(=O)O | 24.3 µM | 14.1 µM |  |  |
| COc1cccc2c(=O)c3cc(Cl)cc(C(=O)Nc4cc(Cl)ccn4)c3[nH]c12 | 25.3 µM | 27.5 µM |  |  |
| Cc1ccc2nc(-c3ccc4nc(-c5ccc(N(C)C(=O)c6ccc7ccccc7c6)cc5)sc4c3)sc2c1S(=O)(=O)O | 13.5 µM | 14.4 µM |  |  |
| Cc1ccc2nc(-c3ccc(NC(=O)c4ccc(NC(=O)Nc5ccccc5)cc4)cc3)sc2c1S(=O)(=O)O | 32.1 µM | 43.8 µM |  |  |
| CCN(CC)c1ccc(-c2nc3ccc(C)c(S(=O)(=O)O)c3s2)cc1 | 24.6 µM | 32.9 µM |  |  |
| Cc1ccc2nc(-c3ccc(NC(=O)c4ccc(NC(=O)c5ccc(N)cc5)cc4)cc3)sc2c1S(=O)(=O)O | 25.5 µM | 29.4 µM |  |  |
| Cc1ccc2nc(-c3ccc4nc(-c5ccc(NC(=O)Nc6ccc(C(F)(F)F)cc6)cc5)sc4c3)sc2c1S(=O)(=O)O | 4 µM | 5.1 µM |  |  |
| Cc1ccc2nc(-c3ccc4nc(-c5ccc(NCc6ccccc6)cc5)sc4c3)sc2c1S(=O)(=O)O | 13.5 µM | 11 µM |  |  |
| Cc1ccc2c(sc(-c3ccc4c(c3)sc(-c3ccc5c(c3)sc(-c3ccc(N(C)C)cc3)[n+]5C)[n+]4C)[n+]2C)c1S(=O)(=O)O (tested in a mixture with another compound) | 15.6 µM | 23.8 µM |  |  |
| Cc1cc(C(O)(c2ccc(Nc3ccccc3)cc2)c2ccc(Nc3ccc(S(=O)(=O)O)cc3)cc2)ccc1N (stereo not drawn) | 16.8 µM | 28.6 µM |  |  |
| Cc1ccc2nc(-c3ccc4nc(-c5ccc(NC(=O)Nc6ccccc6)cc5)sc4c3)sc2c1S(=O)(=O)O | 6 µM | 4.1 µM |  |  |
| Cc1ccc2nc(-c3ccc4nc(-c5ccc(NC(=O)c6ccc(CNC(=O)OCC7c8ccccc8-c8ccccc87)cc6)cc5)sc4c3)sc2c1S(=O)(=O)O | 4.6 µM | 4.4 µM |  |  |
| Cc1ccc2nc(-c3ccc4nc(-c5ccc(NS(=O)(=O)c6ccc(C(F)(F)F)cc6)cc5)sc4c3)sc2c1S(=O)(=O)O | 35 µM | 32 µM |  |  |
| Cc1ccc2nc(-c3ccc4nc(-c5ccc(NC(=O)Nc6ccc(F)cc6)cc5)sc4c3)sc2c1S(=O)(=O)O | 9.9 µM | 7.8 µM |  |  |
| Cc1ccc2nc(-c3ccc(NC(=O)c4ccc(NS(=O)(=O)c5ccccc5)cc4)cc3)sc2c1S(=O)(=O)O |  |  | inactive | inactive |
| Cc1ccc2nc(-c3ccc(NC(=O)c4ccc(NC(=O)c5ccccc5)cc4)cc3)sc2c1S(=O)(=O)O | inactive | inactive |  |  |
| COc1ccc2sc(NC(=O)c3ccc4ncsc4c3)nc2c1 |  |  | inactive | inactive |

| SMILES | IC50 (NS3h 2a[JFH1]) | IC50 (NS3h 1b[con1]) | outcome (NS3h 2a[JFH1]) | outcome (NS3h 1b[con1]) |
| --- | --- | --- | --- | --- |
| Cc1ccc2nc(-c3ccc4nc(-c5ccc6nc(-c7ccc8nc(-c9ccc(N)cc9)sc8c7)sc6c5)sc4c3)sc2c1S(=O)(=O)O | 0.5 µM and 1.2 µM | 0.8 µM and 2.2 µM |  |  |
| Cc1ccc2nc(-c3ccc4nc(-c5ccc(NC(=O)c6cc(F)ccc6C(F)(F)F)cc5)sc4c3)sc2c1S(=O)(=O)O | 16.6 µM | 19 µM |  |  |
| Cc1cc2sc(-c3ccc(N)cc3)nc2cc1S(=O)(=O)O | inactive |  |  | inactive |
| CCN(CC)c1ccc(-c2nc3ccc(-c4nc5ccc(C)c(S(=O)(=O)O)c5s4)cc3s2)cc1 | 4.7 µM | 4.6 µM |  |  |
| COc1ccc(S(=O)(=O)Nc2ccc(-c3nc4ccc(-c5nc6ccc(C)c(S(=O)(=O)O)c6s5)cc4s3)cc2)cc1 | 13.4 µM | 24.4 µM |  |  |
| Cc1ccc2nc(-c3ccc4nc(-c5ccc(NC(=O)c6ccc7nc(-c8ccc(NC(=O)OCC9c%10ccccc%10-c%10ccccc%109)cc8)sc7c6)cc5)sc4c3)sc2c1S(=O)(=O)O | 1.7 µM and 0.8 µM | 4 µM and 28.9 µM |  |  |
| CN1CCN(Cc2cc(CN3CCN(C)CC3)c(O)c(=O)c(CN3CCN(C)CC3)c2)CC1 | 18.9 µM | 24 µM |  |  |
| Cc1ccc2nc(-c3ccc4nc(-c5ccc(NC(=O)c6cccc(C(F)(F)F)c6F)cc5)sc4c3)sc2c1S(=O)(=O)O | 8.1 µM | 9.2 µM |  |  |
| Cc1ccc2nc(-c3ccc(N)cc3)sc2c1S(=O)(=O)O | 21.1 µM | inactive |  |  |
| COC(=O)c1ccc(C(=O)Nc2ccc(-c3nc4ccc(-c5nc6ccc(C)c(S(=O)(=O)O)c6s5)cc4s3)cc2)cc1 | 2.4 µM | 9.7 µM |  |  |
| CCOc1ccc2c(NNC(=O)c3cnccn3)c3c(nc2c1)CCCC3 | inactive |  |  | inactive |
| Cc1ccc2nc(-c3ccc(NC(=O)c4ccc(NC(=O)c5ccc(NC(=O)OCC6c7ccccc7-c7ccccc76)cc5)cc4)cc3)sc2c1S(=O)(=O)O | 1.9 µM | 2.5 µM |  |  |
| Cc1ccc2nc(-c3ccc4nc(-c5ccc(NC(=O)c6cc(C(F)(F)F)ccc6F)cc5)sc4c3)sc2c1S(=O)(=O)O | 6.7 µM | 6.4 µM |  |  |
| Cc1ccc2nc(-c3ccc(NC(=O)c4ccc(N)cc4)cc3)sc2c1S(=O)(=O)O | inactive | inactive |  |  |
| Cc1ccc2nc(-c3ccc4nc(-c5ccc(NC(=O)c6c(F)cccc6C(F)(F)F)cc5)sc4c3)sc2c1S(=O)(=O)O | inactive | 16.8 µM |  |  |
| O=C(Nc1ccc(-c2nc3ccccc3[nH]2)cc1)c1ccc2ncsc2c1 | 24.3 µM | 25.2 µM |  |  |

The remaining lines, values ahead:

| IC50 (NS3h 2a[JFH1]) | IC50 (NS3h 1b[con1]) | outcome (NS3h 2a[JFH1]) | outcome (NS3h 1b[con1]) | SMILES |
| --- | --- | --- | --- | --- |
| 3.9 µM | 2.6 µM |  |  | Cc1ccc2nc(-c3ccc4nc(-c5ccc(NC(=O)c6cccc(Cl)c6)cc5)sc4c3)sc2c1S(=O)(=O)O |
| 3.9 µM | 7 µM |  |  | Cc1cc2sc(-c3ccc4nc(-c5ccc(N)cc5)sc4c3)nc2cc1S(=O)(=O)O |
| 6 µM and 15.7 µM | 37.9 µM and 40.5 µM |  |  | NS(=O)(=O)c1ccc2nc(NC(=O)c3ccc4ncsc4c3)sc2c1 |
| 21.3 µM | 26.8 µM |  |  | CS(=O)(=O)c1ccc2nc(NC(=O)c3ccc4ncsc4c3)sc2c1 |
| inactive | inactive |  |  | Cc1ccc2nc(-c3ccc4nc(NC(=O)c5ccc6ncoc6c5)sc4c3)sc2c1 |
| 15.9 µM | 19.7 µM |  |  | Cc1ccc2nc(-c3ccc4nc(-c5ccc(NC(=O)c6cccc(C(F)(F)F)c6)cc5)sc4c3)sc2c1S(=O)(=O)O |
| 2.3 µM | 3.4 µM |  |  | Cc1ccc2nc(-c3ccc4nc(-c5ccc(NC(=O)c6ccc(Cl)cc6)cc5)sc4c3)sc2c1S(=O)(=O)O |
| 3.2 µM | 5.5 µM |  |  | Cc1ccc2nc(-c3ccc4nc(-c5ccc(NC(=O)c6ccc7nc(-c8ccc(N)cc8)sc7c6)cc5)sc4c3)sc2c1S(=O)(=O)O |
| 6 µM | 11 µM |  |  | Cc1ccc2nc(-c3ccc4nc(-c5ccc(NC(=O)c6ccc(N(C)C)cc6)cc5)sc4c3)sc2c1S(=O)(=O)O |
| 5.3 µM | 12.8 µM |  |  | Cc1ccc2nc(-c3ccc4nc(-c5ccc6nc(-c7ccc(N)cc7)sc6c5)sc4c3)sc2c1S(=O)(=O)O (tested in a mixture with another compound) |
| 4.5 µM | 3.7 µM |  |  | Cc1ccc2nc(-c3ccc4nc(-c5ccc(NC(=O)c6ccc(Cl)c(Cl)c6)cc5)sc4c3)sc2c1S(=O)(=O)O |
| 3 µM | 5.2 µM |  |  | Cc1ccc2nc(-c3ccc4nc(-c5ccc(NC(=O)c6ccc(F)cc6)cc5)sc4c3)sc2c1S(=O)(=O)O |
| 2.3 µM | 1.8 µM |  |  | Cc1ccc2nc(-c3ccc4nc(-c5ccc(NC(=O)c6ccc(C(F)(F)F)cc6)cc5)sc4c3)sc2c1S(=O)(=O)O |
| 5.3 µM | 10.3 µM |  |  | Cc1ccc2nc(-c3ccc4nc(-c5ccc(NC(=O)c6ccc(N)cc6)cc5)sc4c3)sc2c1S(=O)(=O)O |
| 4.6 µM | 10.7 µM |  |  | Cc1ccc2nc(-c3ccc4nc(-c5ccc(NC(=O)c6ccccc6)cc5)sc4c3)sc2c1S(=O)(=O)O |
| inactive |  |  | inactive | CCOc1ccc2nc(NC(=O)c3ccc4ncsc4c3)sc2c1 |
